Active and inactive are the calls of the source. The calls are words filed in the database; no cut-off is given here.
Columns and labels:
MCF7 = experiment: Antiproliferative activity against human MCF7 cells after 48 hrs by MTT assay; assay type: functional, cell-based; details: MCF7, 48 h
A549 = experiment: Antiproliferative activity against human A549 cells after 48 hrs by MTT assay; assay type: functional, cell-based; details: A549, 48 h
DU-145 = experiment: Antiproliferative activity against human DU145 cells after 48 hrs by MTT assay; assay type: functional, cell-based; details: DU-145, 48 h
NIH3T3 = experiment: Antiproliferative activity against mouse NIH/3T3 cells after 48 hrs by MTT assay; assay type: functional, cell-based; details: NIH3T3, 48 h
HeLa = experiment: Antiproliferative activity against human HeLa cells after 48 hrs by MTT assay; assay type: functional, cell-based
Calf thymus DNA = experiment: Binding affinity to calf thymus double stranded DNA at 5 uM by ostwald viscometer; assay type: nucleic-acid assay; details: Bos taurus

| Structure (SMILES) | IC50 (MCF7) | IC50 (A549) | IC50 (DU-145) | IC50 (NIH3T3) | IC50 (HeLa) | Activity (Calf thymus DNA) |
| --- | --- | --- | --- | --- | --- | --- |
| COc1ccc2[nH]cc(C(c3cc4c([nH]c5ccccc54)c(-c4ccc(C)cc4)n3)c3c[nH]c4ccc(OC)cc34)c2c1 | 27.4 µM | 30.1 µM | 23.1 µM | 59.3 µM | 33.8 µM | – |
| COc1cc(-c2nc(C(c3c[nH]c4ccc([N+](=O)[O-])cc34)c3c[nH]c4ccc([N+](=O)[O-])cc34)cc3c2[nH]c2ccccc23)cc(OC)c1OC | 16.3 µM | 17.1 µM | 11.9 µM | 128 µM | 14.2 µM | – |
| CC[n+]1c(-c2ccccc2)c2cc(N)ccc2c2ccc(N)cc21 | – | – | – | – | – | Active |
| Cc1ccc(-c2nc(C(c3c[nH]c4ccc(F)cc34)c3c[nH]c4ccc(F)cc34)cc3c2[nH]c2ccccc23)cc1 | 14.2 µM | 14.2 µM | 5.81 µM | 66.2 µM | 12.4 µM | – |
| Cc1ccc(-c2nc(C(c3c[nH]c4ccc(C#N)cc34)c3c[nH]c4ccc(C#N)cc34)cc3c2[nH]c2ccccc23)cc1 | 17.4 µM | 11 µM | 7.32 µM | 60.6 µM | 16 µM | – |
| Fc1ccc(-c2nc(C(c3c[nH]c4ccc(Br)cc34)c3c[nH]c4ccc(Br)cc34)cc3c2[nH]c2ccccc23)cc1 | 18.3 µM | 8.3 µM | 7.74 µM | 90.1 µM | 9.5 µM | – |
| CCOc1ccc(-c2nc3cc(-c4nc5cc(N6CCN(C)CC6)ccc5[nH]4)ccc3[nH]2)cc1 | – | – | – | – | – | inactive |
| Cc1ccc(-c2nc(C(c3c[nH]c4ccc([N+](=O)[O-])cc34)c3c[nH]c4ccc([N+](=O)[O-])cc34)cc3c2[nH]c2ccccc23)cc1 | 16.9 µM | 6.92 µM | 6 µM | 145 µM | 10.9 µM | – |
| COc1ccc(-c2nc(C(c3c[nH]c4ccccc34)c3c[nH]c4ccc(C#N)cc34)cc3c2[nH]c2ccccc23)cc1 (stereo unspecified) | 28.9 µM | 13.7 µM | 14.8 µM | 119 µM | 30.9 µM | – |
| N#Cc1ccc2[nH]cc(C(c3cc4c([nH]c5ccccc54)c(-c4ccc(F)cc4)n3)c3c[nH]c4ccccc34)c2c1 (stereo unspecified) | 26.3 µM | 15.7 µM | 2.34 µM | 58.1 µM | 17.1 µM | – |
| COc1cc(-c2nc(C(c3c[nH]c4ccccc34)c3c[nH]c4ccc(C#N)cc34)cc3c2[nH]c2ccccc23)cc(OC)c1OC (stereo unspecified) | 11.8 µM | 19.3 µM | 19 µM | 57.2 µM | 9.86 µM | – |
| COc1ccc2c(c1)[nH]c1c(C)nccc12 [HARMINE] | 10.8 µM | 7.76 µM | 12 µM | – | 16.2 µM | – |
| COc1ccc(-c2nc(C(c3c[nH]c4ccc([N+](=O)[O-])cc34)c3c[nH]c4ccc([N+](=O)[O-])cc34)cc3c2[nH]c2ccccc23)cc1 | 50.1 µM | 10.4 µM | 9.31 µM | 118 µM | 18 µM | – |
| Cc1ccc(-c2nc(C(c3c[nH]c4ccccc34)c3c[nH]c4ccccc34)cc3c2[nH]c2ccccc23)cc1 | 18.1 µM | 10 µM | 13.7 µM | 101 µM | 14.3 µM | – |
| COc1ccc(-c2nc(C(c3c(C)[nH]c4ccc([N+](=O)[O-])cc34)c3c(C)[nH]c4ccc([N+](=O)[O-])cc34)cc3c2[nH]c2ccccc23)cc1 | 25.3 µM | 11.7 µM | 16.6 µM | 126 µM | 21.5 µM | – |
| Cc1ccc(-c2nc(C(c3c(C)[nH]c4ccc([N+](=O)[O-])cc34)c3c(C)[nH]c4ccc([N+](=O)[O-])cc34)cc3c2[nH]c2ccccc23)cc1 | 22.8 µM | 21.1 µM | 15 µM | 52.1 µM | 28.1 µM | – |
